# Read-outs that look alike come from different tables or passages of the source. Starred links: 1 amine or outer side, 2 acyl side, 3 side chain; linkers in the order of their positions; H or OH if unused. Non-standard residues stand in square brackets, D forms with d. Residues, ends and D or L forms follow the SMILES beside them. Groups on a side chain read outwards from the residue. *: point of attachment. C20 diacid = O=C(O)CCCCCCCCCCCCCCCCCCC(=O)*; γGlu = O=C(O)[C@H](CCC(=O)[*:2])N[*:1]; NMeI = CC[C@H](C)[C@H](NC)C(=O)O; Nle = CCCC[C@H](N)C(=O)O; AEEA = NCCOCCOCC(=O)O; Aib = CC(C)(N)C(=O)O
# Columns and labels:
# hCRHR2 = molecular target: T1, hCRHR2 (Homo sapiens, UniProt Q13324); assay: HTRF cAMP assay, determination of hCRHR2 potency (peptide libraries 5 conc., purified peptides 11 conc.); format: cell-based; details: read-out: hCRHR2 pEC50 (converted)
# T1 sequence (Q13324 1-411): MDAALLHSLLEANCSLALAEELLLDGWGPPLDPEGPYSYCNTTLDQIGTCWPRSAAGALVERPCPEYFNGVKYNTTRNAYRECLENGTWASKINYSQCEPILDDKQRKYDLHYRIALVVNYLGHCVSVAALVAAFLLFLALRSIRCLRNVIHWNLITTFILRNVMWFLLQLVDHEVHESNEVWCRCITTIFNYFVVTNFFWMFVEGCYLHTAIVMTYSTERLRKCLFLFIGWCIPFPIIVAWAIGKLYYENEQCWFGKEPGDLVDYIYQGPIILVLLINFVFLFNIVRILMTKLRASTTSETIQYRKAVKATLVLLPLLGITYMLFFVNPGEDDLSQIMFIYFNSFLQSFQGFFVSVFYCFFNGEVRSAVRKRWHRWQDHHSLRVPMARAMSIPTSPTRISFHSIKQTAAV
# How it was run: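 CHO-K1 cells stably expressing human CRHR2 were thawed from frozen stocks immediately before use and assayed in suspension with agonist peptides. cAMP was measured by time-resolved FRET in a competitive immunoassay between cryptate-labelled anti-cAMP antibody and d2-labelled cAMP. EC50 values came from nonlinear regression, sigmoid variable-slope fit.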
# hCRHR1 = molecular target: T2, hCRHR1 (Homo sapiens, UniProt P34998); assay: HTRF cAMP assay, determination of hCRHR1 potency (peptide libraries 5 conc., purified peptides 11 conc.); format: cell-based; details: read-out: hCRHR1 pEC50 (converted)
# T2 sequence (P34998 24-415): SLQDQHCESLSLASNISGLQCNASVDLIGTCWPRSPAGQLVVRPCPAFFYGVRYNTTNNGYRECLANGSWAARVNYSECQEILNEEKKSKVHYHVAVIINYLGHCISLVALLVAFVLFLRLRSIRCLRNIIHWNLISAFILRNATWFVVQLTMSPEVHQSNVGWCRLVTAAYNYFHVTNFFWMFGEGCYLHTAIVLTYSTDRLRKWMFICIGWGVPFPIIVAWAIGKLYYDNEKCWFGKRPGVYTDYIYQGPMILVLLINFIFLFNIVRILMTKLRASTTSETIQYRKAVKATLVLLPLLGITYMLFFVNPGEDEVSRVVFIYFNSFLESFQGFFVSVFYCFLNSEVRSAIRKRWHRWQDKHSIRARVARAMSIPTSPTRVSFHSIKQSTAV
# How it was run: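 CHO-K1 cells stably expressing human CRHR1, thawed from frozen stocks just before use, were stimulated in suspension with agonist peptides. cAMP was measured by HTRF competitive immunoassay (cryptate anti-cAMP antibody vs d2-cAMP).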
# [1] = Table 4, library peptides having X^38 = Nle
# [2] = Table 3, matched molecular pairs X^38 L vs Nle, peptide library of Example 4
EC50 (hCRHR2; [1]) [nM],EC50 (hCRHR1; [1]) [nM],EC50 (hCRHR2; [2]) [nM],EC50 (hCRHR1; [2]) [nM],SMILES
0.0398,3160,,,CCCC[C@H](NC(=O)[C@@H](NC(=O)[C@H](CCC(=O)O)NC(=O)[C@H](C)NC(=O)[C@H](CC(N)=O)NC(=O)C(C)(C)NC(=O)[C@H](CCCCNC(=O)COCCOCCNC(=O)COCCOCCNC(=O)CC[C@H](NC(=O)CC[C@H](NC(=O)CCCCCCCCCCCCCCCCCCC(=O)O)C(=O)O)C(=O)O)NC(=O)[C@H](C)NC(=O)[C@H](CCC(N)=O)NC(=O)[C@H](CCC(=O)O)NC(=O)[C@H](CCCNC(=N)N)NC(=O)[C@H](C)NC(=O)[C@H](C)NC(=O)[C@H](CCCNC(=N)N)NC(=O)[C@H](C)NC(=O)[C@H](CCCNC(=N)N)NC(=O)[C@H](C)NC(=O)[C@H](CCC(N)=O)NC(=O)[C@H](CCCCN)NC(=O)[C@H](CC(C)C)NC(=O)[C@H](CC(C)C)NC(=O)[C@@H](NC(=O)[C@H](CCC(N)=O)NC(=O)[C@H](CC(C)C)NC(=O)[C@H](CC(C)C)NC(=O)CNC(=O)[C@@H](NC(=O)[C@@H]1CCCN1C(=O)[C@@H](NC(=O)[C@H](CC(=O)O)NC(=O)[C@H](CC(C)C)NC(=O)[C@H](CO)NC(=O)[C@H](CC(C)C)NC(=O)[C@@H](NC(=O)[C@@H](NC)[C@@H](C)CC)C(C)C)C(C)C)[C@@H](C)CC)[C@@H](C)CC)[C@@H](C)CC)C(=O)N[C@@H](C)C(=O)N[C@@H](CCC(=O)O)C(=O)N[C@H](C(N)=O)C(C)C [compound 233] (H-[NMeI]VLSLDVPIGLLQILLKQARARAAREQAK([AEEA-AEEA-γGlu-γGlu-C20 diacid])[Aib]NAEI[Nle]AEV-NH2)
,,0.2,63.1,CCCC[C@H](NC(=O)[C@@H](NC(=O)[C@H](CCC(=O)O)NC(=O)[C@H](C)NC(=O)[C@H](CC(N)=O)NC(=O)[C@@H](NC(=O)[C@H](CCCCNC(=O)COCCOCCNC(=O)COCCOCCNC(=O)CC[C@H](NC(=O)CC[C@H](NC(=O)CCCCCCCCCCCCCCCCCCC(=O)O)C(=O)O)C(=O)O)NC(=O)[C@H](C)NC(=O)[C@H](CCC(N)=O)NC(=O)[C@H](CCC(N)=O)NC(=O)[C@H](CCCNC(=N)N)NC(=O)[C@H](CCC(N)=O)NC(=O)[C@H](C)NC(=O)[C@H](CCCNC(=N)N)NC(=O)[C@H](C)NC(=O)[C@H](CCCNC(=N)N)NC(=O)[C@H](C)NC(=O)[C@H](CCC(N)=O)NC(=O)[C@H](CCC(=O)O)NC(=O)[C@H](CC(C)C)NC(=O)[C@H](CC(C)C)NC(=O)[C@@H](NC(=O)[C@H](CCC(N)=O)NC(=O)[C@H](CC(C)C)NC(=O)[C@H](CC(C)C)NC(=O)CNC(=O)[C@@H](NC(=O)[C@@H]1CCCN1C(=O)[C@@H](NC(=O)[C@H](CC(=O)O)NC(=O)[C@H](CC(C)C)NC(=O)[C@H](CO)NC(=O)[C@H](CC(C)C)NC(=O)[C@@H](NC(=O)[C@@H](N)[C@@H](C)CC)C(C)C)C(C)C)[C@@H](C)CC)[C@@H](C)CC)[C@@H](C)O)[C@@H](C)CC)C(=O)N[C@@H](C)C(=O)N[C@@H](CCC(=O)O)C(=O)N[C@H](C(N)=O)C(C)C [SEQ ID NO: 47] (H-IVLSLDVPIGLLQILLEQARARAQRQQAK([AEEA-AEEA-γGlu-γGlu-C20 diacid])TNAEI[Nle]AEV-NH2)
,,0.158,5010,CCCC[C@H](NC(=O)[C@@H](NC(=O)[C@H](CCC(=O)O)NC(=O)[C@H](C)NC(=O)[C@H](CC(N)=O)NC(=O)[C@@H](NC(=O)[C@H](CCCCNC(=O)COCCOCCNC(=O)COCCOCCNC(=O)CC[C@H](NC(=O)CC[C@H](NC(=O)CCCCCCCCCCCCCCCCCCC(=O)O)C(=O)O)C(=O)O)NC(=O)[C@H](C)NC(=O)[C@H](CCC(N)=O)NC(=O)[C@H](CCC(=O)O)NC(=O)[C@H](CCCNC(=N)N)NC(=O)[C@H](C)NC(=O)[C@H](CO)NC(=O)[C@H](CCCNC(=N)N)NC(=O)[C@H](C)NC(=O)[C@H](CCCNC(=N)N)NC(=O)[C@H](C)NC(=O)[C@H](CCC(N)=O)NC(=O)[C@H](CCC(=O)O)NC(=O)[C@H](CC(C)C)NC(=O)[C@H](CC(C)C)NC(=O)[C@@H](NC(=O)[C@H](CCC(N)=O)NC(=O)[C@H](CC(C)C)NC(=O)[C@H](CC(C)C)NC(=O)CNC(=O)[C@@H](NC(=O)[C@@H]1CCCN1C(=O)[C@@H](NC(=O)[C@H](CC(=O)O)NC(=O)[C@H](CC(C)C)NC(=O)[C@H](CO)NC(=O)[C@H](CC(C)C)NC(=O)[C@@H](NC(=O)[C@@H](N)[C@@H](C)CC)C(C)C)C(C)C)[C@@H](C)CC)[C@@H](C)CC)[C@@H](C)O)[C@@H](C)CC)C(=O)N[C@@H](C)C(=O)N[C@@H](CCC(=O)O)C(=O)N[C@H](C(N)=O)[C@@H](C)CC [SEQ ID NO: 36] (H-IVLSLDVPIGLLQILLEQARARSAREQAK([AEEA-AEEA-γGlu-γGlu-C20 diacid])TNAEI[Nle]AEI-NH2)
0.0158,1000,,,CCCC[C@H](NC(=O)[C@@H](NC(=O)[C@H](CCC(=O)O)NC(=O)[C@H](C)NC(=O)[C@H](CC(N)=O)NC(=O)C(C)(C)NC(=O)[C@H](CCCCNC(=O)COCCOCCNC(=O)COCCOCCNC(=O)CC[C@H](NC(=O)CC[C@H](NC(=O)CCCCCCCCCCCCCCCCCCC(=O)O)C(=O)O)C(=O)O)NC(=O)[C@H](C)NC(=O)[C@H](CCC(N)=O)NC(=O)[C@H](CCC(=O)O)NC(=O)[C@H](CCCNC(=N)N)NC(=O)[C@H](C)NC(=O)[C@H](C)NC(=O)[C@H](CCCNC(=N)N)NC(=O)[C@H](C)NC(=O)[C@H](CCCNC(=N)N)NC(=O)[C@H](C)NC(=O)[C@H](CCC(N)=O)NC(=O)[C@@H](NC(=O)[C@H](CC(C)C)NC(=O)[C@H](CC(C)C)NC(=O)[C@@H](NC(=O)[C@H](CCC(N)=O)NC(=O)[C@H](CC(C)C)NC(=O)[C@H](CC(C)C)NC(=O)CNC(=O)[C@@H](NC(=O)[C@@H]1CCCN1C(=O)[C@@H](NC(=O)[C@H](CC(=O)O)NC(=O)[C@H](CC(C)C)NC(=O)[C@H](CO)NC(=O)[C@H](CC(C)C)NC(=O)[C@@H](NC(=O)[C@@H](NC)[C@@H](C)CC)C(C)C)C(C)C)[C@@H](C)CC)[C@@H](C)CC)C(C)C)[C@@H](C)CC)C(=O)N[C@@H](C)C(=O)N[C@@H](CCC(=O)O)C(=O)N[C@H](C(N)=O)C(C)C [compound 138] (H-[NMeI]VLSLDVPIGLLQILLVQARARAAREQAK([AEEA-AEEA-γGlu-γGlu-C20 diacid])[Aib]NAEI[Nle]AEV-NH2)
,,0.501,794,CC[C@H](C)[C@H](N)C(=O)N[C@H](C(=O)N[C@@H](CC(C)C)C(=O)N[C@@H](CO)C(=O)N[C@@H](CC(C)C)C(=O)N[C@@H](CC(=O)O)C(=O)N[C@H](C(=O)N1CCC[C@H]1C(=O)N[C@H](C(=O)NCC(=O)N[C@@H](CC(C)C)C(=O)N[C@@H](CC(C)C)C(=O)N[C@@H](CCC(N)=O)C(=O)N[C@H](C(=O)N[C@@H](CC(C)C)C(=O)N[C@@H](CC(C)C)C(=O)N[C@@H](CCC(=O)O)C(=O)N[C@@H](CCC(N)=O)C(=O)N[C@@H](C)C(=O)N[C@@H](CCCNC(=N)N)C(=O)N[C@@H](C)C(=O)N[C@@H](CCCNC(=N)N)C(=O)N[C@@H](C)C(=O)N[C@@H](CC(C)C)C(=O)N[C@@H](CCCNC(=N)N)C(=O)N[C@@H](CCC(=O)O)C(=O)N[C@@H](CCC(N)=O)C(=O)N[C@@H](C)C(=O)N[C@@H](CCCCNC(=O)COCCOCCNC(=O)COCCOCCNC(=O)CC[C@H](NC(=O)CC[C@H](NC(=O)CCCCCCCCCCCCCCCCCCC(=O)O)C(=O)O)C(=O)O)C(=O)N[C@H](C(=O)N[C@@H](CC(N)=O)C(=O)N[C@@H](C)C(=O)N[C@@H](CCC(=O)O)C(=O)N[C@H](C(=O)N[C@@H](CC(C)C)C(=O)N[C@@H](C)C(=O)N[C@@H](CCC(=O)O)C(=O)N[C@H](C(N)=O)C(C)C)[C@@H](C)CC)[C@@H](C)O)[C@@H](C)CC)[C@@H](C)CC)C(C)C)C(C)C [SEQ ID NO: 39] (H-IVLSLDVPIGLLQILLEQARARALREQAK([AEEA-AEEA-γGlu-γGlu-C20 diacid])TNAEILAEV-NH2)

# From patent publication EP4810052A2, “HCRHR2 SELECTIVE POLYPEPTIDES” (Gubra A/S, priority 2023, dated 2026)
